Experimental data as given in paper PMC8958511, “Development of Sulfamoylated 4-(1-Phenyl-1H-1,2,3-triazol-4-yl)phenol Derivatives as Potent Steroid Sulfatase Inhibitors for Efficient Treatment of Breast Cancer” (Journal of Medicinal Chemistry, 2022).
Read-outs that look alike come from different tables or passages of the source.

Tests used:
[1] = biological target: T1, STS in MCF-7 cells (Homo sapiens, UniProt P08842); test: radioisotope cellular assay with [3H]E1S in MCF-7 cells; assay type: cell-based; settings: for remaining activity at 0.01 µM / remaining activity at 0.1 µM / remaining activity at 0.001 µM: MCF7, 20 h; for remaining activity at 0.01 µM: read-out: residual STS activity [%] 10 nM; for remaining activity at 0.1 µM: read-out: residual STS activity [%] 100 nM; for remaining activity at 0.001 µM: read-out: residual STS activity [%] 1 nM
T1 construct: The radioisotope cellular assay was performed using the MCF-7 cell line; endogenous in cells; host or cells: MCF-7
T1 sequence (P08842 22-583): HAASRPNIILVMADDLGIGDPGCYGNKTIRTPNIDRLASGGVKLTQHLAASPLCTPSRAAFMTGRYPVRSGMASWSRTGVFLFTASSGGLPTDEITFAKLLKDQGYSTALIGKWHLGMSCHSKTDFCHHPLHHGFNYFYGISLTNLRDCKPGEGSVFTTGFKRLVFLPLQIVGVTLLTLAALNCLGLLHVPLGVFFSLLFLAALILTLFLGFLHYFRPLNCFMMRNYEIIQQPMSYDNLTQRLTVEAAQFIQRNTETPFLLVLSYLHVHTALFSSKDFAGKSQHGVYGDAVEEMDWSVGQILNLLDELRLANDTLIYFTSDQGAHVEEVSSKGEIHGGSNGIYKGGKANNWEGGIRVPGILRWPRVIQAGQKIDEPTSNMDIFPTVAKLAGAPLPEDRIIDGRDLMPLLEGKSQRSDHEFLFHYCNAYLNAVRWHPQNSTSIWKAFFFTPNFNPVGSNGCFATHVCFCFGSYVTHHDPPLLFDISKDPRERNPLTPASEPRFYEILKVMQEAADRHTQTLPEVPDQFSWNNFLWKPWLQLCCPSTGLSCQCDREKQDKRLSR
Protocol: All compounds were initially tested for their in cell inhibitory action at a 100 nM concentration.
The inhibitory potency of the synthesized compounds was examined in two ways, including an enzymatic assay and the radioisotope cellular test. […] The radioisotope cellular assay was performed using the MCF-7 cell line in the presence of radiolabeled [^3H]E1S.
The evaluation of the inhibitory effect of each compound with breast cancer cells was performed using a previously described method (27) with some modifications. MCF-7 cells were maintained in Dulbecco’s modified Eagle medium supplemented with 10% fetal bovine serum and cultured in the above medium until 80% confluence. […] After incubation, the medium (0.45 mL) was collected from each well, and the product formed by STS hydrolysis was extracted with toluene (4 mL). STS activity was measured using a MicroBeta radioluminometer (PerkinElmer). Assays with MCF-7 cells were carried out in triplicate.

[2] = biological target: T2, STS isolated from the human placenta (Homo sapiens, UniProt P08842); test: radioisotope enzymatic assay with STS isolated from human placenta and [3H]E1S; assay type: biochemical; settings: 0.5 μM inhibitor concentration, substrate [3H]E1S, 3 nM, triplicate; for remaining activity at 0.5 µM: read-out: residual STS activity [%]
T2 construct: radioisotope enzymatic assay using STS isolated from the human placenta; from tissue; host or cells: human placenta
T2 sequence (P08842 22-583): T1 sequence (P08842 22-583)
Protocol: The inhibitory potency of the synthesized compounds was examined in two ways, including an enzymatic assay and the radioisotope cellular test. The enzymatic assay was performed using the STS enzyme isolated from human placenta and using radiolabeled [^3H]E1S as a substrate.
The total volume of the reaction mixture was 100 μL. […] After incubation, the reaction mixture (90 μL) was collected from each well, and the product formed by STS hydrolysis was extracted with toluene (0.5 mL). STS activity was measured using a MicroBeta radioluminometer (PerkinElmer). Enzymatic assays were carried out in triplicate.

[3] = assay type: in vivo; settings: Table S1, MTD study, 50 mg/kg
Protocol: The mice were thus weighed, and their general health was observed. […] At the end of the study, the mice were sacrificed by dislocation of the cervical vertebrae, and the internal organs were examined macroscopically.
The mice were weighed, and their general health was observed. […] At the end of the MTD study, the autopsy was performed, and the internal organs (liver, kidney, and spleen) were weighed and macroscopically assessed.

[4] = test system: 67NR mouse mammary tumor cells; test: antitumor activity in 67NR orthotopic mouse breast carcinoma model; assay type: in vivo, BALB/c mice; settings: 50 mg/kg b.w. per os
Protocol: The tumor volume (TV) and body weight were measured three times a week. Results for individual groups are reported in Figure S5, Supporting Information. Based on TV data, the tumor growth inhibition (TGI) was calculated for groups that received compounds and compared to that of the control group. […] The body weight of the treated animals was monitored during the study, and the body weight change (BWC) index was calculated (Figure 4). […] Body weight loss was observed between D2 and D11 and reached 4.5% at most.
The growth of tumors has been observed.

[5] = blood morphology, blood biochemistry and organ weights of mice with 67NR tumor
Protocol: At the end of the study, the autopsy of the animals was performed: blood was collected for further analyses of the morphology (Table S2, Supporting Information) and biochemistry (Table S3 and Figure S6, Supporting Information) and for the determination of the plasma estradiol level using the ELISA method.
Mice were injected orthotopically (in the mammary gland fat pad) with 67NR mouse mammary tumor cells derived from in vitro culture (1.5 × 10^5 cells/0.05 mL Hanks fluid/mouse). The growth of tumors has been observed. […] Animals were observed during the next 17 days and euthanized. During observation, body weight and tumor growth were monitored three times a week. The volume of the tumors was calculated according to the following formula: TV = a^2·b/2 [mm^3], (where: a—width and b—length of the tumor). Blood, tumor tissue, and liver were harvested during autopsy for further analyses. Blood aliquots (about 500 μL) were collected in EDTA containing vials for morphology analysis (Mythic 18 analyzer, Orphee), and then, the plasma was collected (centrifuged at 2500g for 15 min at 4 °C within 1 h after collection) for biochemical parameter analysis (Cobas c111, Roche).

[6] = MCF-7 cells, 10 nM inhibitor, substrate [3H]E1S, 3 nM, triplicate
[7] = MCF-7 cells, 100 nM inhibitor, substrate [3H]E1S, 3 nM, triplicate
[8] = MCF-7 cells, 1 nM inhibitor, substrate [3H]E1S, 3 nM, triplicate
[9] = Table S2, mice with 67NR tumor, 50 mg/kg
[10] = Table S3, plasma, mice with 67NR tumor, 50 mg/kg per os, N=9

NS(=O)(=O)Oc1ccc(-c2cn(-c3ccccc3)nn2)cc1 [5b]
remaining activity at 0.01 µM [1, 6]: 46.6 ± 1.63% | remaining activity at 0.1 µM [1, 7]: 1.5 ± 0.05%

Cc1cccc(-n2cc(-c3ccc(OS(N)(=O)=O)cc3)nn2)c1 [4e, 4-(1-(3-Methylphenyl)-1H-1,2,3-triazol-4-yl)phenyl Sulfamate]
remaining activity at 0.1 µM [1, 7]: 3.1 ± 0.12% | melting point: 212 to 213 °C (dec.) | remaining activity at 0.5 µM [2]: 34.2 ± 1.71%

NS(=O)(=O)Oc1ccc(-c2cn(-c3cc(C(F)(F)F)cc(C(F)(F)F)c3)nn2)cc1 [5d]
remaining activity at 0.1 µM [1, 7]: 14.7 ± 0.88%

COc1cccc(-n2cc(-c3ccc(OS(N)(=O)=O)cc3)nn2)c1 [4g, 4-(1-(3-Methoxyphenyl)-1H-1,2,3-triazol-4-yl)phenyl Sulfamate]
remaining activity at 0.1 µM [1, 7]: 6.8 ± 0.24% | melting point: 210 to 212 °C (dec.) | remaining activity at 0.5 µM [2]: 43.4 ± 2.17%

Cc1cc(=O)oc2cc(OS(N)(=O)=O)ccc12 [COUMATE, reference compound]
remaining activity at 0.1 µM [1]: 51.8%

COc1cc(OC)cc(-n2cc(-c3ccc(OS(N)(=O)=O)cc3)nn2)c1 [4h, 4-(1-(3,5-Dimethoxyphenyl)-1H-1,2,3-triazol-4-yl)phenyl Sulfamate]
remaining activity at 0.1 µM [1, 7]: 34.3 ± 1.88% | melting point: 225 to 227 °C (dec.) | remaining activity at 0.5 µM [2]: 55.1 ± 2.76%

NS(=O)(=O)Oc1ccc(-c2cn(-c3ccc(OC(F)(F)F)cc3)nn2)cc1 [5i]
remaining activity at 0.001 µM [1, 8]: 71.8 ± 4.67% | remaining activity at 0.01 µM [1, 6]: 9.5 ± 0.48% | remaining activity at 0.1 µM [1, 7]: 1% | residual STS activity [%] 100 nM [1, 7]: 1.0%

Cc1cc(C)cc(-n2cc(-c3ccc(OS(N)(=O)=O)cc3)nn2)c1 [4f, 4-(1-(3,5-Dimethylphenyl)-1H-1,2,3-triazol-4-yl)phenyl Sulfamate]
remaining activity at 0.1 µM [1, 7]: 10.2 ± 0.61% | remaining activity at 0.5 µM [2]: 52.5 ± 2.62%

NS(=O)(=O)Oc1ccc(-c2cn(-c3cc(I)cc(I)c3)nn2)cc1 [4m, 4-(1-(3,5-Diiodophenyl)-1H-1,2,3-triazol-4-yl)phenyl Sulfamate]
remaining activity at 0.1 µM [1, 7]: 18.7% | melting point: 213 to 216 °C (dec.) | residual STS activity [%] [2]: 11.78 ± 0.59% | remaining activity at 0.5 µM [2]: 11.8%

NS(=O)(=O)Oc1ccc(-c2cn(-c3cccc(C(F)(F)F)c3)nn2)cc1 [5m]
remaining activity at 0.01 µM [1, 6]: 59.9 ± 3.29%

NS(=O)(=O)Oc1ccc(-c2cn(-c3ccccc3C(F)(F)F)nn2)cc1 [5c]
remaining activity at 0.1 µM [1, 7]: 5.5 ± 0.3%

NS(=O)(=O)Oc1ccc(-c2cn(-c3ccc(F)c(F)c3)nn2)cc1 [5f]
remaining activity at 0.1 µM [1, 7]: 3 ± 0.14%

NS(=O)(=O)Oc1ccc(-c2cn(-c3ccc(F)cc3C(F)(F)F)nn2)cc1 [5h]
remaining activity at 0.01 µM [1, 6]: 48.2 ± 3.37%

NS(=O)(=O)Oc1ccc(-c2cn(-c3ccc(C(F)(F)F)cc3)nn2)cc1 [5j]
remaining activity at 0.1 µM [1, 7]: < 5%

NS(=O)(=O)Oc1ccc(-c2cn(-c3ccc(F)cc3)nn2)cc1 [5a]
remaining activity at 0.01 µM [1, 6]: 60.2 ± 2.7% | remaining activity at 0.1 µM [1, 7]: 1.5 ± 0.05%

CCc1cccc(-n2cc(-c3ccc(OS(N)(=O)=O)cc3)nn2)c1 [4i, 4-(1-(3-Ethylphenyl)-1H-1,2,3-triazol-4-yl)phenyl Sulfamate]
remaining activity at 0.1 µM [1, 7]: 2.6 ± 0.08% | melting point: 223 to 225 °C (dec.) | remaining activity at 0.5 µM [2]: 14.5 ± 0.73%

NS(=O)(=O)Oc1ccc(-c2cn(-c3cc(Br)cc(Br)c3)nn2)cc1 [4l, 4-(1-(3,5-Dibromophenyl)-1H-1,2,3-triazol-4-yl)phenyl Sulfamate]
remaining activity at 0.1 µM [1, 7]: 8.3 ± 0.4% | melting point: 228 to 229 °C (dec.) | remaining activity at 0.5 µM [2]: 28.9 ± 1.44%

NS(=O)(=O)Oc1ccc(-c2cn(-c3ccc(F)c(F)c3F)nn2)cc1 [5e]
GRAN [3]: 11,1±1,9% | HCT [3]: 42,3±1,3% | HGB [3]: 15,7±0,5 g/dL | LIMF [3]: 85,6±2,6% | MCH [3]: 17,1±0,2 pg | MCHC [3]: 37,2±0,7 g/dL | MCV [3]: 46±0,5 fL | MON [3]: 3,3±1% | PLT [3]: 511±30 10x3/uL | RBC [3]: 9,2±0,4 10x6/uL | RDW [3]: 17,6±0,7% | WBC [3]: 4,0±0,4 10x3/uL | body weight of treated tumor-bearing mice (observation) [4]: An increase in body weight was observed | tumor growth inhibition (TGI) ([4]; 5 days a week, 67NR tumor, N = 9, vs control group): did not show any significant effect | mice responded to the treatment ([4]; nine mice/group): 6 mice poorly responded to the treatment | mice with much larger tumor than the mean control volume ([4]; nine mice/group): 2 mice | mice with tumor volume reduced by approx. 50% compared to the TV control ([4]; nine mice/group): 1 mice | remaining activity at 0.001 µM [1]: 38.9% | remaining activity at 0.01 µM [1]: 24.2 ± 1.45% | remaining activity at 0.1 µM [1]: 1 ± 0.04% | IC50 ([1]; MCF-7 cells, substrate [3H]E1S, 3 nM): 2.95 ± 0.13 nM | HCT [5, 9]: 34,6±1,6% | HGB [5, 9]: 13,4±0,6 g/dL | MCH [5, 9]: 18,2±0,4 pg | MCHC [5, 9]: 38,6±0,5 g/dL | MCV [5, 9]: 47±1,2 fL | MPV [5, 9]: 4,9±0,1 fL | PCT [5, 9]: 0,280±0,04% | PDW [5, 9]: 25,6±3,8 fL | RBC [5, 9]: 7,4±0,4 x106/uL | RDW [5, 9]: 19,2±1,2% | WBC [5, 9]: 6,1±2,1 x103/uL | ALT [5, 10]: 31,1±10,7 U/L | AST [5, 10]: 97,4±24,9 U/L | creatinine [5, 10]: 5,33±1,21 umol/L | urea [5, 10]: 7,65±0,54 mmol/L

CC(C)c1cccc(-n2cc(-c3ccc(OS(N)(=O)=O)cc3)nn2)c1 [4j, 4-(1-(3-Isopropylphenyl)-1H-1,2,3-triazol-4-yl)phenyl Sulfamate]
remaining activity at 0.01 µM [1, 6]: 73.4% | remaining activity at 0.1 µM [1, 7]: 2.4 ± 0.12% | melting point: 202 to 204 °C (dec.) | remaining activity at 0.5 µM [2]: 18.1 ± 0.9%

NS(=O)(=O)Oc1ccc(-c2cn(-c3cccc(I)c3)nn2)cc1 [4d, 4-(1-(3-Iodophenyl)-1H-1,2,3-triazol-4-yl)phenyl Sulfamate]
remaining activity at 0.001 µM [1, 8]: 67.5 ± 3.71% | remaining activity at 0.01 µM [1, 6]: 31.8 ± 1.59% | remaining activity at 0.1 µM [1, 7]: 2 ± 0.11% | melting point: 228 to 229 °C (dec.) | residual STS activity [%] [2]: 13.23 ± 0.66% | remaining activity at 0.5 µM [2]: 13.2%

NS(=O)(=O)Oc1ccc(-c2cn(-c3cccc(Br)c3)nn2)cc1 [4c, 4-(1-(3-Bromophenyl)-1H-1,2,3-triazol-4-yl)phenyl Sulfamate]
remaining activity at 0.001 µM [1, 8]: 79.4 ± 4.76% | remaining activity at 0.01 µM [1, 6]: 39.9 ± 2.19% | remaining activity at 0.1 µM [1, 7]: 2.1 ± 0.07% | melting point: 212 to 213 °C (dec.) | remaining activity at 0.5 µM [2]: 24.1 ± 1.2%

NS(=O)(=O)Oc1ccc(-c2cn(-c3ccccc3OC(F)(F)F)nn2)cc1 [5k]
remaining activity at 0.1 µM [1, 7]: 15.5 ± 0.93%

NS(=O)(=O)Oc1ccc(-c2cn(-c3cccc([N+](=O)[O-])c3)nn2)cc1 [4k, 4-(1-(3-Nitrophenyl)-1H-1,2,3-triazol-4-yl)phenyl Sulfamate]
remaining activity at 0.1 µM [1, 7]: 5.9 ± 0.32% | melting point: 225 to 226 °C (dec.) | remaining activity at 0.5 µM [2]: 28.9 ± 1.44%
